Laboratory results: US10961234B2, “Oxazole derivatives for use in the treatment of cancer” (LIFEARC, priority 2016, dated 2021)

Key:
WT full length PAICS = molecular target: T1, WT full length PAICS (Homo sapiens, UniProt P22234); experiment: Biochemical assay to measure PAICS activity (Transcreener ADP2 FI, SAICAR synthetase reaction); settings: PAICS 2.5 nM, 30 mins pre-incubation, ADP detection by fluorescence intensity
T1 construct: 5 μl WT full length PAICS (final assay concentration, fac, 2.5 nM) in basic buffer
T1 sequence (P22234 1-425): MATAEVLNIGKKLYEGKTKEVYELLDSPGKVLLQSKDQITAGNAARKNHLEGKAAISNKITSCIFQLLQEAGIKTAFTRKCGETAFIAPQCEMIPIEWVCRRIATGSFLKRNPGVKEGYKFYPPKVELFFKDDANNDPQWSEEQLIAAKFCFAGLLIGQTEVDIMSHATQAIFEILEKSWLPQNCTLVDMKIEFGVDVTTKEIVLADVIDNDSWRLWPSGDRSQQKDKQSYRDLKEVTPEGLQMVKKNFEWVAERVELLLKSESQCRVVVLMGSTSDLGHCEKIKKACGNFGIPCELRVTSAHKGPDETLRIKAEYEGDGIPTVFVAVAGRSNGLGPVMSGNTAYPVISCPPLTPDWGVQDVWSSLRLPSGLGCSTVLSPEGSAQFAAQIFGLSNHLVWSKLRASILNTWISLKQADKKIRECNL
Method in brief: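 Enzyme (2.5 nM) pre-incubated 30 min RT with compound (top 1 mM or 30 μM, half-log 10-point, duplicate) in 50 mM Tris-HCl pH8, 0.5 mM EDTA; CAIR (10 μM, ~5 μM after 1 h AIR/CAIR equilibration with MgCl2/KHCO3) then ATP/aspartate (30 μM/180 μM) for 30 min RT. ADP read by Transcreener fluorescence intensity (590/617 nm).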

[1] = system: LM2 and MDA-MB-231 breast cancer cell lines; experiment: PAICS 2D cell proliferation assay; format: cell-based; settings: Homo sapiens; 72 hours incubation; cell line (LM2 or MDA-MB-231) not given
Method in brief: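 Cells seeded at 1000/well, dosed after 24 h with a 10-point ½-log series (top 100 μM, 1% DMSO final), then incubated 72 h at 37 °C. Dead cells measured by CellTox Green DNA staining and viability by CellTiter-Glo ATP luminescence, both expressed as % of controls (mean±SEM, duplicate curves).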

[2] = system: wild type LM2 and CRISPR edited LM2; experiment: Cell potency in CRISPR edited (PAICS knock-out) LM2 versus wild type LM2; format: cell-based, human; settings: CRISPR edited LM2 vs wild type LM2
Method: Cas9 nuclease-mediated gene editing (Sander and Joung, 2014) was performed using a CRISPR RNA guide sequence ([…], PAM: AGG) targeting exon 3 in the human PAICS gene (accession number: NM_006452).
Stable cell clones were isolated and gene disruption confirmed by DNA sequencing and the absence of PAICS cellular protein expression confirmed by Western blotting.
A small set of compounds were tested against wild type LM2 and CRISPR edited LM2 to see to what extent the cellular potency was driven by PAICS mediated effects.

IC50 (WT full length PAICS) | EC50 [1] | Potency shift: CRISPR Cell EC50/WT Cell EC50 [2] | SMILES
> 100 nM | 100 to 250 nM | >10 | CN1CCN(c2ccc(-c3ccc(Cl)c(NC(=O)c4coc(N)n4)c3)cn2)CC1 [Example 37, 2-Amino-N-{2-chloro-5-[6-(4-methylpiperazin-1-yl)pyridin-3-yl]phenyl}-1,3-oxazole-4-carboxamide]
10 to 25 nM | < 100 nM | >80 | CCNCCCn1cc(-c2ccc(Cl)c(NC(=O)c3coc(N)n3)c2)cn1 [Example 47, 2-Amino-N-(2-chloro-5-(1-(3-(ethylamino)propyl)-1H-pyrazol-4-yl)phenyl)oxazole-4-carboxamide]
< 10 nM | < 100 nM | >30 | CN(C)CCCOc1ncc(-c2ccc(Cl)c(NC(=O)c3coc(N)n3)c2)s1 [Example 86, 2-Amino-N-(2-chloro-5-{2-[3-(dimethylamino)propoxy]-1,3-thiazol-5-yl}phenyl)-1,3-oxazole-4-carboxamide]
